Patent publication US20130040882A1, “USE OF FIBROBLAST GROWTH FACTOR FRAGMENTS” (NOVARTIS AG, priority 2003, published 2013)

Test system: transcript levels in tissues (GH/IGF and glucagon/insulin axes, SSTR signalling)
Type: in vivo, cynomolgus monkeys
[1] = RNA expression fold change, pituitary

cyclo[4-(NH2—C2H4—NH—CO—O)Pro-Phg-DTrp-Lys-Tyr(4-Bzl)-Phe] [SOM230]
Core-binding factor, runt domain, α subunit 2; translocated to, 1; cyclin D-related ↑ [1]: D-related ↑ x3
Cyclin D3 ↑ [1]: Cyclin D3 ↑ x2.5
Cyclin F ↓ [1]: Cyclin F ↓ x2
Dual specificity phosphatase 8 ↓ [1]: phosphatase 8 ↓ x3
EGFRBP 2 ↓ [1]: EGFRBP 2 ↓ x1.5
FGFR 2 ↓ [1]: FGFR 2 ↓ x2
Fms-related tyrosine kinase 1 (VEGF/vascular permeability factor receptor) ↓ [1]: receptor) ↓ x1.5
Forkhead box H1 ↑ [1]: Forkhead box H1↑ x2
Forkhead box O3A ↓ [1]: ↓ x1.5
G protein-coupled receptor, family C, group 5, member B ↑ [1]: 5, member B ↑ x2
G-protein coupled receptor 9 ↑ [1]: receptor 9 ↑ x2.5
G-protein coupled receptor 49 ↓ [1]: receptor 49 ↓ x2
GABA-B R 1, isoform a precursor ↑ [1]: ↑ x1.5
GFR bound protein 10 ↑ [1]: ↑ x1.5
GLUR 2, precursor ↑ [1]: x1.5
GTP-binding protein 11 ↑ [1]: ↑ x2.5
GTP-binding protein (G protein), q polypeptide ↓ [1]: ↓ x2.5
GTP-binding protein like-1 ↓ [1]: like-1 ↓ x3
Gastrin receptor ↓ [1]: Gastrin receptor ↓ x2
Glucagon receptor ↑ [1]: Glucagon receptor ↑ x7
IFN stimulated gene ↑ [1]: ↑ x3.5
IFNR2 (α, β and ω) ↓ [1]: ↓ x2.5
IFNγ-inducible protein 30 (IP30) ↑ [1]: 30 (IP30) ↑ x1.5
IGF-2 ↓ [1]: IGF-2 ↓ x1.5
IGFBP, acid labile subunit ↑ [1]: subunit ↑ x3.5
IP3 receptor, type 1 ↑ [1]: ↑ x1.5
IP-4-phosphatase, type 1, isoform b ↓ [1]: 1, isoform b ↓ x2
JAK 1 ↑ [1]: JAK 1 ↑ x2
K+ channel, subfamily K, member 3 (TASK) ↓ [1]: ↓ x4
K+ voltage-gated channel, Shab-related subfamily, member 1 ↓ [1]: subfamily, member 1 ↓ x2
MAPKKK5 ↑ [1]: MAPKKK5 ↑ x2
Neuroblastoma-amplified protein ↑ [1]: ↑ x1.5
PDGFβ ↓ [1]: PDGFβ ↓ x2
PI transfer protein, β ↓ [1]: ↓ x2.5
PI-3-kinase, catalytic, α polypeptide ↓ [1]: polypeptide ↓ x3
PI-3-kinase, catalytic, δ polypeptide ↓ [1]: ↓ x2
PKC inhibitor ↑ [1]: PKC inhibitor ↑ x2
PLCγ 1 ↓ [1]: PLCγ 1 ↓ x1.5
PP 1, regulatory (inhibitor) subunit 5 ↑ [1]: ↑ x3.5
PTP, receptor type, T ↑ [1]: ↑ x2
Phosphatase and tensin homolog (mutated in multiple advanced cancers 1) ↓ [1]: 1) ↓ x3.5
Programmed cell death 6 ↑ [1]: ↑ x1.5
Putative Ca++ transporting ATPase ↑ [1]: transporting ATPase ↑ x2
RAB 5C, member RAS oncogene family ↑ [1]: oncogene family ↑ x3
Rab3 GTPase-activating protein, non catalytic subunit ↓ [1]: subunit ↓ x2
Rab geranylgeranyltransferase, α subunit ↓ [1]: α subunit ↓ x1.5
Rab geranyltransferase, β subunit ↑ [1]: β subunit ↑ x2
Receptor (calcitonin) activity modifying protein 2 precursor ↑ [1]: 2 precursor ↑ x3.5
Receptor tyrosine kinase-like orphan receptor 2 ↑ [1]: receptor 2 ↑ x2
Regulator of G-protein signalling 9 ↑ [1]: ↑ x2
S-phase response (cyclin-related) ↑ [1]: (cyclin-related) ↑ x2
SHB adaptor protein (a Src homology 2 protein) ↓ [1]: ↓ x2.5
SSTR3 ↑ [1]: SSTR3 ↑ x3
STAT 1, 91kδ ↓ [1]: STAT 1, 91kδ ↓ x2
Soluble adenylyl cyclase ↓ [1]: ↓ x2
TNFR subfamily, member 14; herpesvirus entry mediator ↓ [1]: entry mediator ↓ x2.5
TNFR-associated factor 2 ↓ [1]: 2 ↓ x4
Thrombospondin-p50 ↓ [1]: ↓ x2
Thyroid transcription factor 1 ↑ [1]: factor 1 ↑ x2.5
VEGF B ↑ [1]: VEGF B ↑ x1.5
Extra spindle poles, S. cerevisiae, homolog of ↓ (cynomolgus monkey, in vivo): ↓ x2.5
Acetylserotonin O-methyl transferase-like expression ↓ (fold change) (kidney): transferase-like ↓ x3
Adrenomedullin expression ↑ (fold change) (kidney): x1.5
Angiotensin receptor 1B expression ↓ (fold change) (kidney): 1B ↓ x1.5
Arginine vasopressin (neurophysin II, antidiuretic hormone, diabete insipidus, neurohypophyseal) expression ↑ (fold change) (kidney): ↑ x2
CDC37 (cell division cycle 37, S. cerevisiae, homolog) expression ↑ (fold change) (kidney): homolog) ↑ x1.5
CSF-1 receptor, formerly Mc Donough feline sarcoma viral (v-fms) oncogene homolog expression ↑ (fold change) (kidney): homolog ↑ x2.5
Ca++ channel, voltage-dependent, α 1H subunit expression ↑ (fold change) (kidney): α 1H subunit ↑ x2
Calcium/calmodulin-dependent protein kinase kinase 2, β expression ↑ (fold change) (kidney): ↑ x1.5
Calmodulin 3 (phosphorylase kinase, δ) expression ↓ (fold change) (kidney): kinase, δ) ↓ x1.5
Cdk 5, regulatory subunit 2 (p39) expression ↑ (fold change) (kidney): ↑ x1.5
Cdki 1A (p21, Cip 1) expression ↑ (fold change) (kidney): Cip 1) ↑ x5
Corticotropin releasing hormone receptor type 2 beta isoform expression ↑ (fold change) (kidney): isoform ↑ x1.5
Death effector domain-containing expression ↓ (fold change) (kidney): ↓ x3.5
Dopamine receptor D2 expression ↑ (fold change) (kidney): receptor D2 ↑ x4.5
Fas/Apo-1/CD95 expression ↑ (fold change) (kidney): ↑ x1.5
GABA (A) receptor, γ2 precursor expression ↑ (fold change) (kidney): precursor ↑ x2
GFR-bound protein 7 expression ↑ (fold change) (kidney): protein 7 ↑ x2
GFR-bound protein 14 expression ↑ (fold change) (kidney): protein 14 ↑ x2
Gene expression (AvgDiff): IGF-1 (kidney): 25
Gene expression (AvgDiff): IGF-2 (kidney): 49
Gene expression (AvgDiff): IGFBP2 (kidney): 563
Gene expression (AvgDiff): IR (kidney): 196
Gene expression (AvgDiff): SSTR2 (kidney): 126
Gene expression (AvgDiff): SSTR3 (kidney): 82
Glucocorticoid receptor DNA binding factor 1 expression ↓ (fold change) (kidney): ↓ x4.5
Glutamate receptor, metabotropic 2 precursor expression ↓ (fold change) (kidney): precursor ↓ x3
Growth arrest-specific 6 expression ↑ (fold change) (kidney): specific 6 ↑ x1.5
IGF-1 expression ↓ (fold change) (kidney): IGF-1 ↓ x2.5
IGF-2 expression ↓ (fold change) (kidney): IGF-2 ↓ x2
IGFBP2 expression ↑ (fold change) (kidney): IGFBP2 ↑ x1.5
IL-7 R precursor expression ↑ (fold change) (kidney): ↑ x2
IRF5 expression ↑ (fold change) (kidney): IRF5 ↑ x2
Insulin receptor expression ↓ (fold change) (kidney): ↓ x3
K+ voltage-gated channel, Shaw-related subfamily, member 3 expression ↑ (fold change) (kidney): member 3 ↑ x2.5
LIF (cholinergic differentiation factor) expression ↑ (fold change) (kidney): factor) ↑ x2
Na+ channel, nonvoltage-gated 1, β (Liddle syndrome) expression ↓ (fold change) (kidney): ↓ x2
Natriuretic peptide receptor A/guanylate cyclase A (atrionatriuretic peptide receptor A) expression ↑ (fold change) (kidney): ↑ x2
Opioid receptor, δ1 expression ↑ (fold change) (kidney): δ1 ↑ x2.5
PDGFR, α polypeptide expression ↑ (fold change) (kidney): polypeptide ↑ x1.5
PG-endoperoxide synthase 1 (prostaglandin G/H synthase and cyclooxygenase) expression ↓ (fold change) (kidney): x3.5
PI-3-kinase, catalytic, α polypeptide expression ↓ (fold change) (kidney): polypeptide ↓ x3
PP 3 (formerly 2B), catalytic subunit, β isoform (calcineurin A β) expression ↓ (fold change) (kidney): ↓ x2
Putative chemokine receptor; GTP-binding protein expression ↑ (fold change) (kidney): ↑ x2
SSTR2 expression ↑ (fold change) (kidney): SSTR 2↑ x2
SSTR 3 expression ↑ (fold change) (kidney): SSTR 3↑ x3
Solute carrier family 6 (neurotransmitter transporter, creatin), member 8 expression ↓ (fold change) (kidney): member 8 ↓ x3
Solute carrier family 9 (Na+/H+ exchanger) isoform 3 regulatory factor 1 expression ↑ (fold change) (kidney): ↑ x2
TGF, β1 expression ↑ (fold change) (kidney): TGF, β1 ↑ x1.5
THR binding protein expression ↑ (fold change) (kidney): protein ↑x1.5
THR, α (avian erythroblastic leukemia viral (v-erb-a) oncogene homolog) expression ↑ (fold change) (kidney): homolog) ↑x1.5
THR-associated protein, 240kδ subunit expression ↓ (fold change) (kidney): subunit ↓ x1.5
TNF, α-induced protein 3 expression ↓ (fold change) (kidney): ↓ x1.5
TNFR superfamily, member 12 expression ↑ (fold change) (kidney): member 12 ↑ x2
VWF precursor expression ↑ (fold change) (kidney): x2
Vasopressin-activated calcium-mobilizing receptor-1 expression ↓ (fold change) (kidney): 1 ↓ x2
δ sleep inducing peptide, immunoreactor expression ↑ (fold change) (kidney): x2.5
1-PI-4-phosphate 5-kinase isoform C expression ↓ (fold change) (liver): ↓ x2
5-hydroxytrypt amine (serotonine) receptor 6 expression ↑ (fold change) (liver): receptor 6 ↑ x2.5
